Data on eight molecules can be found in ChEMBL document CHEMBL4184295, “7α,15-Dihydroxydehydroabietic acid from Pinus koraiensis inhibits the promotion of angiogenesis through downregulation of VEGF, p-Akt and p-ERK in HUVECs” (Bioorg Med Chem Lett, 2018).

Structures are written as SMILES.

The subject of data set [1] is HUVEC. Put plainly: Antiangiogenic activity against HUVEC assessed as reduction in tube formation at 100 uM after 24 hrs by matrigel-based light microscopic analysis relative to control. More on the design: scale not given: the % may be the effect or the level left. The data set is classed as functional, Homo sapiens.
For data set [2], the system named is HUVEC. The experiment in a line: Cytotoxicity against HUVEC assessed as reduction in cell viability up to 100 uM after 24 hrs by MTT assay. The class given is cell-based. Conditions: human. For orientation: Tetrazolium dyes change colour on reduction, which living cells bring about.
For data set [3], the target named is RAC-alpha serine/threonine-protein kinase (Homo sapiens) (UniProt P31749). The experiment in a line: Inhibition of AKT phosphorylation in HUVEC at 3.125 uM after 24 hrs by Western blot analysis relative to control. The data set is classed as cell-based. Background: Immunoblotting shows a protein as a band on a membrane.
Sequence of RAC-alpha serine/threonine-protein kinase (Homo sapiens) (P31749 whole entry): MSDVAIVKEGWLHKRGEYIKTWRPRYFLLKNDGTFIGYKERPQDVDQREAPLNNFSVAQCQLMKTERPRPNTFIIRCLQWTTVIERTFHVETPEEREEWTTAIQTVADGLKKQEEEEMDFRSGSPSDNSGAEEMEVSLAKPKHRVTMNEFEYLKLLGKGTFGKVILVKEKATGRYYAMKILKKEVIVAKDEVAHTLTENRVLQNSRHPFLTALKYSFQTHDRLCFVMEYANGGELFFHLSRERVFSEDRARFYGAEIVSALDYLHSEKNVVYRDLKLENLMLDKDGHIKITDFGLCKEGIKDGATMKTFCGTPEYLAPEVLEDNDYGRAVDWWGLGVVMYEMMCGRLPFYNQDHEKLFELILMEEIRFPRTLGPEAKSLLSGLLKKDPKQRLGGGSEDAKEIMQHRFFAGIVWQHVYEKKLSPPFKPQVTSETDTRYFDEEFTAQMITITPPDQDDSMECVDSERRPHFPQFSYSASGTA
In data set [4] the test system is HUVEC. Put plainly: Down regulation of VEGF expression in HUVEC at 6.25 uM after 24 hrs by Western blot analysis relative to control. The class given is functional, Homo sapiens.
The test system of data set [5] is HUVEC. Put plainly: Inhibition of ERK phosphorylation in HUVEC at 3.125 uM after 24 hrs by Western blot analysis relative to control. The class given is cell-based. Conditions: Homo sapiens.
The subject of data set [6] is HUVEC. Put plainly: Inhibition of ERK phosphorylation in HUVEC at 6.25 uM after 24 hrs by Western blot analysis relative to control. The data set is classed as cell-based. Conditions: Homo sapiens.
Data set [7] relates to HUVEC. Put plainly: Antiangiogenic activity against HUVEC assessed as reduction in tube formation at 6.25 uM after 24 hrs by matrigel-based light microscopic analysis relative to control. More on the design: scale not given: the % may be the effect or the level left. The class given is functional, Homo sapiens.
Data set [8] concerns the target RAC-alpha serine/threonine-protein kinase (Homo sapiens) (UniProt P31749). Put plainly: Inhibition of AKT phosphorylation in HUVEC at 6.25 uM after 24 hrs by Western blot analysis relative to control. The class given is cell-based.
The test system of data set [9] is HUVEC. The experiment in a line: Down regulation of VEGF expression in HUVEC at 3.125 uM after 24 hrs by Western blot analysis relative to control. The data set is classed as functional, Homo sapiens.
Data set [10] has as its system HUVEC. Put plainly: Antiangiogenic activity against HUVEC assessed as reduction in tube formation at 12.5 uM after 24 hrs by matrigel-based light microscopic analysis relative to control. The data set is classed as functional, Homo sapiens. Also noted: scale not given: the % may be the effect or the level left.

On to `CC(C)(O)c1ccc2c(c1)[C@@H](O)C[C@H]1[C@](C)(C(=O)O)CCC[C@]21C`, for which the Activity is 8.95% in [1] and “Non-Toxic” in data set [2].

Turning to `C=C1CC[C@@H]2[C@](C)(CCC[C@@]2(C)C(=O)O[C@@H]2O[C@H](CO)[C@@H](O)[C@H](O)[C@H]2O)[C@H]1CCC1=CCOC1=O`, the Activity result in data set [2] is reported as “Toxic”.

Turning to `C=C(C)[C@@H]1CC[C@](C)(O)[C@@H](O)C1`, in [2], the Activity entry is “Toxic”.

As for `CC(C)(O)c1ccc2c(c1)C(=O)C[C@H]1[C@](C)(C(=O)O)CCC[C@]21C`, the Activity result in [2] is listed as “Non-Toxic”.

Take `CC1=CC[C@@H](C(C)(C)O)C[C@@H]1O`: in data set [2], the Activity result was “Non-Toxic”.

In the case of `CC(C)(O)c1ccc2c(c1)[C@H](O)C[C@H]1[C@](C)(C(=O)O)CCC[C@]21C`, the fold change (FC) in [3] amounted to 1.1; in [4], 0.69; in data set [5], 0.98; in data set [6] it was 0.82; in data set [8], 0.68; in data set [9], 0.89. The Activity result in data set [2] is given as “Toxic”; in data set [7], 20.53%.

Consider `O=C(O)c1ccc(O)cc1` [PARABEN], for which the Activity result in data set [2] is given as “Non-Toxic”.

Regarding `CC(C)c1ccc2c(c1)CC[C@H]1[C@](C)(C(=O)O)CCC[C@]21C` [DEHYDROABIETIC ACID], the Activity result in [2] is “Toxic”; in data set [10] it was 12.09%.
